# pIC50: −log10 of the molar value.
# Biological target: RIPK1 (recombinant GST-RIPK1 kinase domain, residues 1-327) (Homo sapiens (Human), UniProt Q13546)
# Assay: RIPK1-ADP-Glo Enzymatic Assay
# Format: biochemical
# Conditions: 25 nM GST-RIPK1, 300 μM ATP, 3 μM dephosphorylated-MBP; 30 minutes pre-incubation, 150 minutes reaction; ten-point titration
# Description: The enzymatic activity of RIPK1 is measured using an assay derived from ADP-Glo kit (™Promega), which provides a luminescent-based ADP detection system. Specifically, the ADP generated by RIPK1 kinase is proportionally detected as luminescent signals in a homogenous fashion. In this context, the assessment of the inhibitory effect of small molecules (EC50) is measured by the effectiveness of the compounds to inhibit the ATP to ADP conversion by RIPK1.
# In this assay, the potency (EC50) of each compound was determined from a ten-point (1:3 serial dilution; top compound concentration of 100000 nM) titration curve using the following outlined procedure. To each well of a white ProxiPlus 384 well-plate, 30 nL of compound (1% DMSO in final assay volume of 3 μL) was dispensed, followed by the addition of 2 μL of 1× assay buffer (25 mM Hepes 7.3, 20 mM MgCl2, 50 mM NaCl, 1 mM DTT, 0.005% Tween20, and 0.02% BSA) containing 37.5 nM of GST-RIPK1 (recombinant GST-RIPK1 kinase domain (residues 1-327) enzyme produced from baculovirus-transfected Sf21 cells: MW=62 kDa). Plates were placed in an ambient temperature humidified chamber for a 30 minutes pre-incubation with compound. Subsequently, each reaction was initiated by the addition of 1 μL 1× assay buffer containing 900 μM ATP and 3 μM dephosphorylated-MBP substrate. The final reaction in each well of 3 μL consists of 25 nM of GST-RIPK1, 300 μM ATP, and 3 μM dephosphorylated-MBP. Kinase reactions were allowed to proceed for 150 minutes prior to adding ADP-Glo reagents per Promega's outlined kit protocol. Dose-response curves were generated by plotting percent effect (% product conversion; Y-axis) vs. Log10 compound concentrations (X-axis). EC50 values were calculated using a non-linear regression, four-parameters sigmoidal dose-response model.
# Chain of RIPK1 (recombinant GST-RIPK1 kinase domain, residues 1-327) (Q13546 1-327): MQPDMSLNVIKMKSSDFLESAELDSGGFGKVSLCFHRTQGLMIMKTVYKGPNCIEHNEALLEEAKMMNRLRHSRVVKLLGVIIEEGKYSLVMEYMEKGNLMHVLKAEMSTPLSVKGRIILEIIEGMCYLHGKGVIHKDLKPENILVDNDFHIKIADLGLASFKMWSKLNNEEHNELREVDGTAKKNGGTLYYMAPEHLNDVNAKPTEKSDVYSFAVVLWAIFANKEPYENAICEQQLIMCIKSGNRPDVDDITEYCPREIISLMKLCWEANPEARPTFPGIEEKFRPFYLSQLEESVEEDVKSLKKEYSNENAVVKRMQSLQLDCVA
row,Compound,pIC50
1,"CN(C)C1(C(=O)N2C[C@@H]3C[C@H]2c2ccccc2O3)CCC1 [Compound 1-25, [(2S,5S)-2,3-dihydro-2,5-methano-1,4-benzoxazepin-4(5H)-yl][1-(dimethylamino)cyclobutyl] methanone]",6.85
2,"O=C(N1C[C@@H]2C[C@H]1c1ccccc1O2)C1(C(F)(F)F)CCCC1 [Compound 1-26, [(2S,5S)-2,3-dihydro-2,5-methano-1,4-benzoxazepin-4(5H)-yl][1-(trifluoromethyl)cyclopentyl]methanone]",7.22
3,"N#CC1(C(=O)N2C[C@@H]3C[C@H]2c2ccccc2O3)CCC1 [Compound 1-30, 1-[(2S,5S)-2,3-dihydro-2,5-methano-1,4-benzoxazepine-4(5H)-carbonyl]cyclobutane-1-carbonitrile]",7.12
4,"CC(CF)(CF)C(=O)N1C[C@@H]2C[C@H]1c1ccccc1O2 [Compound 1-33, 1-[(2S,5S)-2,3-dihydro-2,5-methano-1,4-benzoxazepin-4(5H)-yl]-3-fluoro-2-(fluoromethyl)-2-methylpropan-1-one]",6.06
5,"N#Cc1cc(N2CCC(C(=O)N3C[C@@H]4C[C@H]3c3ccccc3O4)CC2)ncn1 [Compound 1-36, 6-{4-[(2S,5S)-2,3-dihydro-2,5-methano-1,4-benzoxazepine-4(5H)-carbonyl]piperidin-1-yl}pyrimidine-4-carbonitrile]",6.49
6,"O=C(C1CCN(c2ncnc3scnc23)CC1)N1C[C@@H]2C[C@H]1c1ccccc1O2 [Compound 1-37, [(2S,5S)-2,3-dihydro-2,5-methano-1,4-benzoxazepin-4(5H)-yl][1-([1,3]thiazolo[5,4-d]pyrimidin-7-yl)piperidin-4-yl]methanone]",6.91
7,"O=C(N1C[C@@H]2C[C@H]1c1ccccc1O2)C12CC(C1)C2 [Compound 1-38, (bicyclo[1.1.1]pentan-1-yl)[(2S,5S)-2,3-dihydro-2,5-methano-1,4-benzoxazepin-4(5H)-yl]methanone]",6.84
8,"O=C(N1C[C@@H]2C[C@H]1c1ccccc1O2)C12CCC(C(F)F)(CC1)C2 [Compound 1-41, (4-(difluoromethyl)bicyclo [2.2.1]heptan-1-yl)((2S,5S)-2,3-dihydro-2,5-methanobenzo[f][1,4]oxaze-pin-4(5H)-yl)methanone]",7.89
9,"O=C(N1C[C@@H]2C[C@H]1c1ccccc1O2)C12CCC(C(F)(F)F)(CC1)C2 [Compound 1-44, [(2S,5S)-2,3-dihydro-2,5-methano-1,4-benzoxazepin-4(5H)-yl][4-(trifluoromethyl)bicyclo [2.2.1]heptan-1-yl]methanone]",7.77
10,"COC12CCC(C(=O)N3C[C@@H]4C[C@H]3c3ccccc3O4)(CC1)C2 [Compound 1-46, [(2S,5S)-2,3-dihydro-2,5-methano-1,4-benzoxazepin-4(5H)-yl](4-methoxybicyclo[2.2.1]heptan-1-yl)methanone]",6.93
11,"CC1(C(=O)N2C[C@@H]3C[C@H]2c2ccccc2O3)CCN(c2cc(C#N)ncn2)CC1 [Compound 1-48, 6-{4-[(2S,5S)-2,3-dihydro-2,5-methano-1,4-benzoxazepine-4(5H)-carbonyl]-4-methylpiperidin-1-yl}pyrimidine-4-carbonitrile]",6.43
12,"O=C(N1C[C@@H]2C[C@H]1c1ccccc1O2)C12CCC(c3ccccc3)(CC1)CC2 [Compound 1-51, [(2S,5S)-2,3-dihydro-2,5-methano-1,4-benzoxazepin-4(5H)-yl](4-phenylbicyclo[2.2.2]octan-1-yl)methanone]",6.14
13,"O=C(N1C[C@@H]2C[C@H]1c1ccccc1O2)C12CCC(C(F)F)(CC1)CC2 [Compound 1-54, [4-(difluoromethyl)bicyclo [2.2.2]octan-1-yl][(2S,5S)-2,3-dihydro-2,5-methano-1,4-benzoxazepin-4(5H)-yl]methanone]",6.58
14,"CC(C)(C#N)C(=O)N1C[C@@H]2C[C@H]1c1ccccc1O2 [Compound 1-59, 3-[(2S,5S)-2,3-dihydro-2,5-methano-1,4-benzoxazepin-4(5H)-yl]-2,2-dimethyl-3-oxopropanenitrile]",6.80

# More lines, in order of rising pIC50, values ahead:
row,pIC50,Compound
1,6.04,"CC12CC(C(=O)N3C[C@@H]4C[C@H]3c3ccccc3O4)(CO1)C2 [Compound 1-42, [(2S,5S)-2,3-dihydro-2,5-methano-1,4-benzoxazepin-4(5H)-yl](1-methyl-2-oxabicyclo[2.1.1]hexan-4-yl)methanone]"
2,6.05,"COc1ccc(CC(C)(C)C(=O)N2C[C@@H]3C[C@H]2c2ccccc2O3)cc1 [Compound 1-58, 1-[(2S,5S)-2,3-dihydro-2,5-methano-1,4-benzoxazepin-4(5H)-yl]-3-(4-methoxyphenyl)-2,2-dimethylpropan-1-one]"
3,6.29,"O=C(N1C[C@@H]2C[C@H]1c1ccccc1O2)C12CCC(C(F)(F)F)(CC1)CC2 [Compound 1-53, [(2S,5S)-2,3-dihydro-2,5-methano-1,4-benzoxazepin-4(5H)-yl][4-(trifluoromethyl)bicyclo [2.2.2]octan-1-yl]methanone]"
4,6.55,"N#CC12CCC(C(=O)N3C[C@@H]4C[C@H]3c3ccccc3O4)(CC1)CC2 [Compound 1-47, 4-[(2S,5S)-2,3-dihydro-2,5-methano-1,4-benzoxazepine-4(5H)-carbonyl]bicyclo[2.2.2] octane-1-carbonitrile]"
5,6.67,"O=C(C1CCN(c2nccn3ncnc23)CC1)N1C[C@@H]2C[C@H]1c1ccccc1O2 [Compound 1-39, [(2S,5S)-2,3-dihydro-2,5-methano-1,4-benzoxazepin-4(5H)-yl][1-([1,2,4]triazolo[1,5-a]pyrazin-8-yl)piperidin-4-yl]methanone]"
6,6.70,"O=C(N1C[C@@H]2C[C@H]1c1ccccc1O2)C12CC(C(F)(F)F)(C1)C2 [Compound 1-52, [(2S,5S)-2,3-dihydro-2,5-methano-1,4-benzoxazepin-4(5H)-yl][3-(trifluoromethyl)bicyclo [1.1.1]pentan-1-yl]methanone]"
7,6.77,"CC1(C)C2CCC1(C(=O)N1C[C@@H]3C[C@H]1c1ccccc1O3)CC2 [Compound 1-45, [(2S,5S)-2,3-dihydro-2,5-methano-1,4-benzoxazepin-4(5H)-yl](7,7-dimethylbicyclo[2.2.1]heptan-1-yl)methanone]"
8,6.80,"CC1(C(=O)N2C[C@@H]3C[C@H]2c2ccccc2O3)CC(F)(F)C1 [Compound 1-31, (3,3-difluoro-1-methylcyclobutyl)[(2S,5S)-2,3-dihydro-2,5-methano-1,4-benzoxazepin-4(5H)-yl]methanone]"
9,6.93,"N#Cc1cc(N2CCC(F)(C(=O)N3C[C@@H]4C[C@H]3c3ccccc3O4)CC2)ncn1 [Compound 1-49, 6-{4-[(2S,5S)-2,3-dihydro-2,5-methano-1,4-benzoxazepine-4(5H)-carbonyl]-4-fluoropiperidin-1-yl}pyrimidine-4-carbonitrile]"
10,7.16,"CC(C(=O)N1C[C@@H]2C[C@H]1c1ccccc1O2)(C(F)(F)F)C(F)(F)F [Compound 1-24, 1-[(2S,5S)-2,3-dihydro-2,5-methano-1,4-benzoxazepin-4(5H)-yl]-3,3,3-trifluoro-2-methyl-2-(trifluoromethyl)propan-1-one]"
11,7.24,"O=C(N1C[C@@H]2C[C@H]1c1ccccc1O2)C1(C(F)F)CCC1 [Compound 1-29, [1-(difluoromethyl)cyclobutyl] [(2S,5S)-2,3-dihydro-2,5-methano-1,4-benzoxazepin-4(5H)-yl]methanone]"
12,7.25,"CC(C)(CC#N)C(=O)N1C[C@@H]2C[C@H]1c1ccccc1O2 [Compound 1-57, 4-[(2S,5S)-2,3-dihydro-2,5-methano-1,4-benzoxazepin-4(5H)-yl]-3,3-dimethyl-4-oxobutanenitrile]"
13,7.37,"COC(=O)C12CCC(C(=O)N3C[C@@H]4C[C@H]3c3ccccc3O4)(CC1)C2 [Compound 1-55, methyl 4-[(2S,5S)-2,3-dihydro-2,5-methano-1,4-benzoxazepine-4(5H)-carbonyl]bicyclo[2.2.1] heptane-1-carboxylate]"
14,7.64,"O=C(N1C[C@@H]2C[C@H]1c1ccccc1O2)C12CCC(F)(CC1)C2 [Compound 1-40, ((2S,5S)-2,3-dihydro-2,5-methanobenzo[f][1,4]oxaze-pin-4(5H)-yl)(4-fluorobicyclo[2.2.1]heptan-1-yl)methanone]"
15,7.66,"CC(C)(C(=O)N1C[C@@H]2C[C@H]1c1ccccc1O2)C1CC1 [Compound 1-28, 2-cyclopropyl-1-[(2S,5S)-2,3-dihydro-2,5-methano-1,4-benzoxazepin-4(5H)-yl]-2-methylpropan-1-one]"
16,7.74,"O=C(N1C[C@@H]2C[C@H]1c1ccccc1O2)C12CCC(CC1)CC2 [Compound 1-43, (bicyclo[2.2.2]octan-1-yl)[(2S,5S)-2,3-dihydro-2,5-methano-1,4-benzoxazepin-4(5H)-yl]methanone]"

# — US20240208986A1, “PHENYL AZEPINES AS RIPK1 INHIBITORS AND METHODS OF USE THEREOF” (Merck Sharp & Dohme LLC, priority 2021, published 2024)
